Laboratory results taken from patent US12662480B2, “Microbiocidal derivatives” (SYNGENTA CROP PROTECTION AG, priority 2020, dated 2026).

How the values were obtained:
[1] = tested on: Puccinia recondita f. sp. tritici; experiment: Puccinia recondita f. sp. tritici / wheat / leaf disc curative (brown rust); type: in vivo; conditions: foliar, 24 h, wheat leaf segments cv. Kanzler, compound applied 1 day after inoculation, compared to untreated control
Description: Example B9: Puccinia recondita f. Sp. Tritici/Wheat/Leaf Disc Curative (Brown Rust) Wheat leaf segments cv. Kanzler are placed on agar in multiwell plates (24-well format). The leaf segments are inoculated with a spore suspension of the fungus. Plates are stored in darkness at 19° C. and 75% rh. The formulated test compound diluted in water is applied 1 day after inoculation. The leaf segments are incubated at 19° C. and 75% rh under a light regime of 12 h light/12 h darkness in a climate cabinet and the activity of a compound is assessed as percent disease control compared to untreated when an appropriate level of disease damage appears in untreated check leaf segments (6-8 days after application). […] […]-9, and P-11.

[2] = tested on: Puccinia recondita f. sp. tritici; experiment: Puccinia recondita f. sp. tritici / wheat / leaf disc preventative (brown rust); type: in vivo; conditions: foliar, wheat leaf segments cv. Kanzler, inoculated 1 day after application, compared to untreated control
Description: Example B10: Puccinia recondita f. Sp. Tritici/Wheat/Leaf Disc Preventative (Brown Rust) Wheat leaf segments cv. Kanzler are placed on agar in multiwell plates (24-well format) and sprayed with the formulated test compound diluted in water. The leaf disks are inoculated with a spore suspension of the fungus 1 day after application. The inoculated leaf segments are incubated at 19° C. and 75% rh under a light regime of 12 h light/12 h darkness in a climate cabinet and the activity of a compound is assessed as percent disease control compared to untreated when an appropriate level of disease damage appears in untreated check leaf segments (7-9 days after application). […] […]-10, and P-11.

SMILES | pest or weed control at 200 ppm [1] [%] | pest or weed control at 200 ppm [2] [%]
Cc1sc(N(C(=O)C2CCOC2)c2cc(F)nc(F)c2)nc1C(=O)NC1CCC1(C)C (stereo not drawn) [Compound P-3, 2-[(2,6-difluoro-4-pyridyl)-(tetrahydrofuran-3-carbonyl)amino]-N-(2,2-dimethylcyclobutyl)-5-methyl-thiazole-4-carboxamide] | ≥ 80 | ≥ 80
Cc1sc(N(C(=O)COC(C)(C)C)c2cc(F)nc(F)c2)nc1C(=O)NC1CCC1(C)C (stereo not drawn) [Compound P-7, 2-[(2-tert-butoxyacetyl)-(2,6-difluoro-4-pyridyl)amino]-N-(2,2-dimethylcyclobutyl)-5-methyl-thiazole-4-carboxamide] | – | ≥ 80
Cc1sc(N(C(=O)C2CCOC2)c2cc(F)nc(F)c2)nc1C(=O)N(C(=O)C1CCOC1)C1CCC1(C)C (stereo not drawn) [Compound P-1, 2-[(2,6-difluoro-4-pyridyl)-(tetrahydrofuran-3-carbonyl)amino]-N-(2,2-dimethylcyclobutyl)-5-methyl-N-(tetrahydrofuran-3-carbonyl)thiazole-4-carboxamide] | ≥ 80 | ≥ 80
Cc1sc(N(C(=O)C2CCCO2)c2cc(F)nc(F)c2)nc1C(=O)NC1CCC1(C)C (stereo not drawn) [Compound P-2, 2-[(2,6-difluoro-4-pyridyl)-(tetrahydrofuran-2-carbonyl)amino]-N-(2,2-dimethylcyclobutyl)-5-methyl-thiazole-4-carboxamide] | ≥ 80 | ≥ 80
Cc1sc(N(C(=O)C(C)S(C)(=O)=O)c2cc(F)nc(F)c2)nc1C(=O)NC1CCC1(C)C (stereo not drawn) [Compound P-10, 2-[(2,6-difluoro-4-pyridyl)-(2-methylsulfonylpropanoyl)amino]-N-(2,2-dimethylcyclobutyl)-5-methyl-thiazole-4-carboxamide] | – | ≥ 80
COC(C)C(=O)N(c1cc(F)nc(F)c1)c1nc(C(=O)NC2CCC2(C)C)c(C)s1 (stereo not drawn) [Compound P-9, 2-[(2,6-difluoro-4-pyridyl)-(2-methoxypropanoyl)amino]-N-(2,2-dimethylcyclobutyl)-5-methyl-thiazole-4-carboxamide] | ≥ 80 | ≥ 80
Cc1sc(N(C(=O)C(C)OC(C)(C)C)c2cc(F)nc(F)c2)nc1C(=O)NC1CCC1(C)C (stereo not drawn) [Compound P-5, 2-[2-tert-butoxypropanoyl-(2,6-difluoro-4-pyridyl)amino]-N-(2,2-dimethylcyclobutyl)-5-methyl-thiazole-4-carboxamide] | ≥ 80 | ≥ 80
Cc1sc(N(C(=O)C2CCOCC2)c2cc(F)nc(F)c2)nc1C(=O)NC1CCC1(C)C (stereo not drawn) [Compound P-11, 2-[(2,6-difluoro-4-pyridyl)-(tetrahydropyran-4-carbonyl)amino]-N-(2,2-dimethylcyclobutyl)-5-methyl-thiazole-4-carboxamide] | ≥ 80 | ≥ 80
Cc1sc(N(C(=O)C(C)OC(C)C)c2cc(F)nc(F)c2)nc1C(=O)NC1CCC1(C)C (stereo not drawn) [Compound P-6, 2-[(2,6-difluoro-4-pyridyl)-(2-isopropoxypropanoyl)amino]-N-(2,2-dimethylcyclobutyl)-5-methyl-thiazole-4-carboxamide] | ≥ 80 | ≥ 80
Cc1sc(N(C(=O)C2COC2)c2cc(F)nc(F)c2)nc1C(=O)NC1CCC1(C)C (stereo not drawn) [Compound P-4, 2-[(2,6-difluoro-4-pyridyl)-(oxetane-3-carbonyl)amino]-N-(2,2-dimethylcyclobutyl)-5-methyl-thiazole-4-carboxamide] | ≥ 80 | ≥ 80
